Reference: patent US20110190267A1, “PRODRUGS OF OPIOIDS AND USES THEREOF” (priority 2010, published 2011)
Values joined by “and” are separate entries in the source; they are usually repeats but may differ in a detail not shown here. Identical values can stand only once. Like-named read-outs stand apart in the source and are kept apart here.

Experiment: Pharmacokinetics of nalbuphine or nalbuphine PABA carbamate, rats (Example 42)
Assay type: in vivo, Wistar rats
Conditions: for half-life: read-out: t½ (converted)
[1] = nalbuphine in plasma after oral nalbuphine, 3 mg free base equivalents/kg, male rats, single animal
[2] = nalbuphine PABA carbamate in plasma after oral p-aminobenzoic acid carbamate prodrug, 3 mg nalbuphine equivs/kg, male rats, single animal

With `Oc1ccc2c3c1O[C@H]1[C@@H](O)CC[C@@]4(O)[C@@H](C2)N(CC2CCC2)CC[C@]314` [nalbuphine] the AUC (male, Wistar, rat, plasma, po, 3 mg nalbuphine free base equivalents/kg, nalbuphine in plasma after oral nalbuphine, 3 mg free base equivalents/kg, Mean, read-out: AUC) was 1.2 ng·h/mL, the Cmax (male, Wistar, rat, plasma, po, 3 mg nalbuphine free base equivalents/kg, nalbuphine in plasma after oral nalbuphine, 3 mg free base equivalents/kg, Mean, read-out: Cmax) was 1 ng/mL and the Tmax (male, Wistar, rat, plasma, po, 3 mg nalbuphine free base equivalents/kg, nalbuphine in plasma after oral nalbuphine, 3 mg free base equivalents/kg, Mean, read-out: Tmax) was 48 min. It also gave a half-life (male, Wistar, rat, plasma, po, 3 mg nalbuphine free base equivalents/kg, nalbuphine in plasma after oral nalbuphine, 3 mg free base equivalents/kg, Mean) of 84 min, a Cmax (male, Wistar, rat, plasma, po, 3 mg nalbuphine free base equivalents/kg, nalbuphine in plasma after oral nalbuphine, 3 mg free base equivalents/kg, single animal, read-out: Cmax) of 1.4 ng/mL and a Tmax (male, Wistar, rat, plasma, po, 3 mg nalbuphine free base equivalents/kg, nalbuphine in plasma after oral nalbuphine, 3 mg free base equivalents/kg, single animal, read-out: Tmax) of 30 min. For the same molecule, the half-life (male, Wistar, rat, plasma, po, 3 mg nalbuphine free base equivalents/kg, nalbuphine in plasma after oral nalbuphine, 3 mg free base equivalents/kg, single animal) was 72 min, the “T>50%Cmax” value (nalbuphine in plasma after oral nalbuphine, 3 mg free base equivalents/kg, male rats, Mean) was 1.3 h and the AUC [1] was 1.8 ng·h/mL and 0.4 ng·h/mL and 1.3 ng·h/mL. The Cmax [1] was 0.7 ng/mL and 0.8 ng/mL, the “T>50%Cmax” value [1] was 1.5 h and 0.7 h and 1.8 h and the Tmax [1] was 60 min. It also gave a t½ [1] of 96 min.

Molecule `O=C(Nc1ccc(C(=O)O)cc1)Oc1ccc2c3c1O[C@H]1[C@@H](O)CC[C@@]4(O)[C@@H](C2)N(CC2CCC2)CC[C@]314` [nalbuphine PABA carbamate, nalbuphine para amino benzoic acid carbamate] has an AUC (male, Wistar, rat, plasma, po, 3 mg nalbuphine free base equivalents/kg, nalbuphine PABA carbamate in plasma after oral p-aminobenzoic acid carbamate prodrug, 3 mg nalbuphine equivs/kg, Mean, read-out: AUC) of 11 ng·h/mL, a Cmax (male, Wistar, rat, plasma, po, 3 mg nalbuphine free base equivalents/kg, nalbuphine PABA carbamate in plasma after oral p-aminobenzoic acid carbamate prodrug, 3 mg nalbuphine equivs/kg, Mean, read-out: Cmax) of 12 ng/mL and a Tmax (male, Wistar, rat, plasma, po, 3 mg nalbuphine free base equivalents/kg, nalbuphine PABA carbamate in plasma after oral p-aminobenzoic acid carbamate prodrug, 3 mg nalbuphine equivs/kg, Mean, read-out: Tmax) of 15 min. The half-life (male, Wistar, rat, plasma, po, 3 mg nalbuphine free base equivalents/kg, nalbuphine PABA carbamate in plasma after oral p-aminobenzoic acid carbamate prodrug, 3 mg nalbuphine equivs/kg, Mean) was 48 min, the AUC (male, Wistar, rat, plasma, po, 3 mg nalbuphine free base equivalents/kg, nalbuphine PABA carbamate in plasma after oral p-aminobenzoic acid carbamate prodrug, 3 mg nalbuphine equivs/kg, single animal, read-out: AUC) was 14 ng·h/mL and the Cmax (male, Wistar, rat, plasma, po, 3 mg nalbuphine free base equivalents/kg, nalbuphine PABA carbamate in plasma after oral p-aminobenzoic acid carbamate prodrug, 3 mg nalbuphine equivs/kg, single animal, read-out: Cmax) was 16 ng/mL. For the same molecule, the Tmax (male, Wistar, rat, plasma, po, 3 mg nalbuphine free base equivalents/kg, nalbuphine PABA carbamate in plasma after oral p-aminobenzoic acid carbamate prodrug, 3 mg nalbuphine equivs/kg, single animal, read-out: Tmax) was 15 min, the AUC [2] was 9.4 ng·h/mL and 11 ng·h/mL and the Cmax [2] was 11 ng/mL and 9.2 ng/mL. For the same molecule, the t½ [2] was 30 min and 48 min and 72 min.
